Reference: patent US12077503B2, “Substituted cyclic amides and their use as herbicides” (FMC CORPORATION, priority 2015, dated 2024)

Experiments:
Assay type in all cases: in vivo
[1] = tested on: ducksalad (Heteranthera limosa); test: Test B flooded paddy test; settings: Heteranthera limosa, Flood, 250 g ai/ha; scale of 0 to 100 where 0 is no effect and 100 is complete control; read-out: Ducksalad plant response rating
In short: (§1)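 Compound goes directly into floodwater once pots are flooded 3 cm above soil, targeting plants at two leaves; the water depth is then held for the test duration. Plants sit 13–15 d in a greenhouse and are rated visually, 100 denoting complete control.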

[2] = tested on: sedge, umbrella (small-flower umbrella sedge, Cyperus difformis); test: Test B flooded paddy test; settings: Cyperus difformis, Flood, 250 g ai/ha; scale of 0 to 100 where 0 is no effect and 100 is complete control; read-out: Sedge, Umbrella plant response rating
In short: as §1

[3] = tested on: barnyardgrass (Echinochloa crus-galli); test: Test B flooded paddy test; settings: Echinochloa crus-galli, Flood, 250 g ai/ha; scale of 0 to 100 where 0 is no effect and 100 is complete control; read-out: Barnyardgrass plant response rating
In short: as §1

rice (Oryra sativa) = test: Test B flooded paddy test; settings: Oryza sativa, Flood, 250 g ai/ha; scale of 0 to 100 where 0 is no effect and 100 is complete control; read-out: Rice plant response rating
In short: as §1

[4] = tested on: wheat (Triticum aestivum); test: Test A postemergence; settings: Triticum aestivum, post-emergence, 240 h, 125 g ai/ha, postemergence, visual injury rating after approximately 10 d; read-out: Wheat plant response rating (0 to 100 scale, 0 no effect, 100 complete control)
In short: (§2)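 Treatment is preemergence as a directed soil spray after planting, or postemergence at the one- to two-leaf stage, with test chemical in a non-phytotoxic solvent mixture plus surfactant. Plants stay in the greenhouse about 10 d before visual injury scoring on a 0 to 100 scale versus untreated controls.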

[5] = tested on: barnyardgrass (Echinochloa crus-galli); test: Test A postemergence; settings: Echinochloa crus-galli, post-emergence, 240 h, 125 g ai/ha, postemergence, visual injury rating after approximately 10 d; read-out: Barnyardgrass plant response rating (0 to 100 scale, 0 no effect, 100 complete control)
In short: as §2

[6] = tested on: giant foxtail (Setaria faberii); test: Test A postemergence; settings: Setaria faberi, post-emergence, 240 h, 125 g ai/ha, postemergence, visual injury rating after approximately 10 d; read-out: Foxtail, Giant plant response rating (0 to 100 scale, 0 no effect, 100 complete control)
In short: as §2

Kochia (Kochia scoparia) [7] = test: Test A postemergence; settings: Bassia scoparia, post-emergence, 240 h, 125 g ai/ha, postemergence, visual injury rating after approximately 10 d; read-out: Kochia plant response rating (0 to 100 scale, 0 no effect, 100 complete control)
In short: as §2

[8] = tested on: ryegrass, Italian (Italian ryegrass, Lolium multiflorum); test: Test A preemergence; settings: Lolium multiflorum, pre-emergence, 240 h; for pest or weed control at 125 g/ha: 125 g ai/ha, preemergence, 0 to 100 scale where 0 is no effect and 100 is complete control, read-out: Ryegrass, Italian plant response rating; for pest or weed control at 500 g/ha: 500 g ai/ha, Preemergence, visual injury vs untreated controls after approximately 10 d, read-out: Ryegrass, Italian plant response rating (0 to 100 scale where 0 is no effect and 100 is complete control)
In short: as §2

[9] = tested on: ragweed (common ragweed, Ambrosia elatior); test: Test A preemergence; settings: Ambrosia artemisiifolia, pre-emergence, 240 h; for pest or weed control at 125 g/ha: 125 g ai/ha, preemergence, 0 to 100 scale where 0 is no effect and 100 is complete control, read-out: Ragweed plant response rating; for pest or weed control at 500 g/ha: 500 g ai/ha, Preemergence, visual injury vs untreated controls after approximately 10 d, read-out: Ragweed plant response rating (0 to 100 scale where 0 is no effect and 100 is complete control)
In short: as §2

[10] = tested on: pigweed (Amaranthus retroflexus); test: Test A preemergence; settings: Amaranthus retroflexus, pre-emergence, 240 h; for pest or weed control at 125 g/ha: 125 g ai/ha, preemergence, 0 to 100 scale where 0 is no effect and 100 is complete control, read-out: Pigweed plant response rating; for pest or weed control at 500 g/ha: 500 g ai/ha, Preemergence, visual injury vs untreated controls after approximately 10 d, read-out: Pigweed plant response rating (0 to 100 scale where 0 is no effect and 100 is complete control)
[11] = tested on: barnyardgrass (Echinochloa crus-galli); test: Test A preemergence; settings: Echinochloa crus-galli, pre-emergence, 240 h; for pest or weed control at 125 g/ha: 125 g ai/ha, preemergence, 0 to 100 scale where 0 is no effect and 100 is complete control, read-out: Barnyardgrass plant response rating; for pest or weed control at 500 g/ha: 500 g ai/ha, Preemergence, visual injury vs untreated controls after approximately 10 d, read-out: Barnyardgrass plant response rating (0 to 100 scale where 0 is no effect and 100 is complete control)
In short: as §2

[12] = tested on: giant foxtail (Setaria faberii); test: Test A preemergence; settings: Setaria faberi, pre-emergence, 240 h; for pest or weed control at 125 g/ha: 125 g ai/ha, preemergence, 0 to 100 scale where 0 is no effect and 100 is complete control, read-out: Foxtail, Giant plant response rating; for pest or weed control at 500 g/ha: 500 g ai/ha, Preemergence, visual injury vs untreated controls after approximately 10 d, read-out: Foxtail, Giant plant response rating (0 to 100 scale where 0 is no effect and 100 is complete control)
In short: as §2

Kochia (Kochia scoparia) [13] = test: Test A preemergence; settings: Bassia scoparia, pre-emergence, 240 h; for pest or weed control at 125 g/ha: 125 g ai/ha, preemergence, 0 to 100 scale where 0 is no effect and 100 is complete control, read-out: Kochia plant response rating; for pest or weed control at 500 g/ha: 500 g ai/ha, Preemergence, visual injury vs untreated controls after approximately 10 d, read-out: Kochia plant response rating (0 to 100 scale where 0 is no effect and 100 is complete control)
In short: as §2

Row | SMILES | pest or weed control at 250 g/ha [1] [%] | pest or weed control at 250 g/ha [2] [%] | pest or weed control at 250 g/ha [3] [%] | pest or weed control at 250 g/ha (rice (Oryra sativa)) [%] | plant injury at 125 g/ha [4] [%] | pest or weed control at 125 g/ha [5] [%] | pest or weed control at 125 g/ha [6] [%] | pest or weed control at 125 g/ha (Kochia (Kochia scoparia) [7]) [%] | pest or weed control at 125 g/ha [8] [%] | pest or weed control at 500 g/ha [8] [%] | pest or weed control at 125 g/ha [9] [%] | pest or weed control at 500 g/ha [9] [%] | pest or weed control at 125 g/ha [10] [%] | pest or weed control at 500 g/ha [10] [%] | pest or weed control at 125 g/ha [11] [%] | pest or weed control at 500 g/ha [11] [%] | pest or weed control at 125 g/ha [12] [%] | pest or weed control at 500 g/ha [12] [%] | pest or weed control at 125 g/ha (Kochia (Kochia scoparia) [13]) [%] | pest or weed control at 500 g/ha (Kochia (Kochia scoparia) [13]) [%]
1 | CN1C[C@H](c2cc(F)c(C(F)(F)F)c(F)c2)[C@@H](C(=O)Nc2ccccc2S(C)(=O)=O)C1=O [Compound 900] | 40 | 0 | 70 | 0 | 50 | 80 | 80 | 30 | 60 | 60 | 50 | 80 | 80 | 90 | 90 | 90 | 90 | 90 | 90 | 90
2 | CN1C[C@H](c2cc(F)c(C(F)(F)F)c(F)c2)[C@@H](C(=O)Nc2ccc(F)cc2F)C1=O [Compound 901] | 60 | 0 | 60 | 0 | 20 | 60 | 90 | 30 | 20 | 50 | 0 | 0 | 30 | 60 | 90 | 90 | 90 | 90 | 80 | 80
3 | CCOc1ccc([C@H]2CN(C)C(=O)[C@@H]2C(=O)Nc2ccc(F)cc2F)cc1 [Compound 905] | 0 | 0 | 0 | 0 | 0 | 70 | 60 | 0 | 0 | 0 | 0 | 0 | 0 | 0 | 70 | 90 | 90 | 90 | 10 | 90
4 | CCOc1ccc([C@H]2CNC(=O)[C@@H]2C(=O)Nc2ccc(F)cc2F)cc1 [Compound 908] | 0 | 0 | 0 | 0 | 0 | 20 | 30 | 0 | 0 | 0 | 0 | 0 | 0 | 0 | 0 | 50 | 30 | 80 | 0 | 0
